Reference: the NIST ThermoML archive (doi:10.1016/j.jct.2014.03.022)

Experiment: xn = mol fraction of the nth substance listed
Details: for surface tension liquid-gas: Wilhelmy plate method; for viscosity: 101.3 kPa, Liquid, Concentric cylinders viscometry

CCCCCCCCO [octan-1-ol] + CN(C)C=O
Details | surface tension liquid-gas, 298.15 K [mN/m] | surface tension liquid-gas, 303.15 K [mN/m] | surface tension liquid-gas, 308.15 K [mN/m] | surface tension liquid-gas, 313.15 K [mN/m] | viscosity, 298.15 K [mPa·s] | viscosity, 303.15 K [mPa·s] | viscosity, 308.15 K [mPa·s] | viscosity, 313.15 K [mPa·s]
x2 = 0 | 27.47 | 26.42 | 25.41 | 24.38 | 7.661 | 6.402 | 5.425 | 4.628
x2 = 0.2198 | 28.07 | 26.98 | 25.95 | 24.91 | 4.082 | 3.243 | 2.678 | 2.2
x2 = 0.3728 | 28.37 | 27.25 | 26.18 | 25.13 | 2.636 | 2.012 | 1.646 | 1.35
x2 = 0.5208 | 28.77 | 27.6 | 26.5 | 25.43 | 1.794 | 1.355 | 1.106 | 0.9143
x2 = 0.6277 | 29.36 | 28.17 | 27.05 | 25.97 | 1.41 | 1.089 | 0.8992 | 0.7523
x2 = 0.7118 | 30.1 | 28.9 | 27.77 | 26.7 | 1.193 | 0.9412 | 0.804 | 0.7006
x2 = 0.7877 | 31.04 | 29.85 | 28.72 | 27.66 | 1.052 | 0.8817 | 0.765 | 0.6768
x2 = 0.8519 | 32.05 | 30.88 | 29.76 | 28.7 | 0.9693 | 0.8339 | 0.7497 | 0.6694
x2 = 0.9085 | 33.13 | 31.98 | 30.87 | 29.84 | 0.9042 | 0.8153 | 0.7484 | 0.6782
x2 = 0.9556 | 34.15 | 33.03 | 31.92 | 30.9 | 0.8603 | 0.7921 | 0.7395 | 0.6802

CCCCCCCCCO [nonan-1-ol] + CN(C)C=O
Details | surface tension liquid-gas, 298.15 K [mN/m] | surface tension liquid-gas, 303.15 K [mN/m] | surface tension liquid-gas, 308.15 K [mN/m] | surface tension liquid-gas, 313.15 K [mN/m] | viscosity, 298.15 K [mPa·s] | viscosity, 303.15 K [mPa·s] | viscosity, 308.15 K [mPa·s] | viscosity, 313.15 K [mPa·s]
x2 = 0 | 27.58 | 26.53 | 25.49 | 24.44 | 9.715 | 7.927 | 6.664 | 5.645
x2 = 0.2201 | 28.12 | 27.04 | 25.98 | 24.92 | 4.766 | 3.633 | 2.965 | 2.416
x2 = 0.3969 | 28.54 | 27.42 | 26.33 | 25.27 | 2.715 | 1.932 | 1.532 | 1.196
x2 = 0.5458 | 28.97 | 27.81 | 26.7 | 25.62 | 1.77 | 1.213 | 0.9531 | 0.7287
x2 = 0.6515 | 29.58 | 28.39 | 27.27 | 26.18 | 1.373 | 0.9494 | 0.7597 | 0.5913
x2 = 0.7321 | 30.3 | 29.11 | 27.98 | 26.9 | 1.156 | 0.8443 | 0.6817 | 0.5692
x2 = 0.8042 | 31.21 | 30.03 | 28.9 | 27.83 | 1.022 | 0.7978 | 0.6695 | 0.5762
x2 = 0.8644 | 32.19 | 31.02 | 29.9 | 28.85 | 0.9434 | 0.7834 | 0.6881 | 0.6071
x2 = 0.9168 | 33.23 | 32.08 | 30.97 | 29.93 | 0.8898 | 0.7837 | 0.7189 | 0.6468
x2 = 0.9596 | 34.2 | 33.07 | 31.97 | 30.95 | 0.8529 | 0.7764 | 0.727 | 0.6663

CCCCCCCCCCO [decan-1-ol] + CN(C)C=O
Details | surface tension liquid-gas, 298.15 K [mN/m] | surface tension liquid-gas, 303.15 K [mN/m] | surface tension liquid-gas, 308.15 K [mN/m] | surface tension liquid-gas, 313.15 K [mN/m] | viscosity, 298.15 K [mPa·s] | viscosity, 303.15 K [mPa·s] | viscosity, 308.15 K [mPa·s] | viscosity, 313.15 K [mPa·s]
x2 = 0 | 28.35 | 27.29 | 26.23 | 25.17 | 11.83 | 9.754 | 8.135 | 6.842
x2 = 0.2361 | 28.83 | 27.74 | 26.67 | 25.61 | 4.984 | 3.776 | 2.992 | 2.357
x2 = 0.4193 | 29.21 | 28.08 | 26.99 | 25.92 | 2.622 | 1.816 | 1.359 | 0.9811
x2 = 0.5688 | 29.6 | 28.43 | 27.31 | 26.23 | 1.623 | 1.092 | 0.7935 | 0.5801
x2 = 0.6724 | 30.14 | 28.95 | 27.82 | 26.74 | 1.238 | 0.8423 | 0.6257 | 0.47
x2 = 0.7496 | 30.78 | 29.6 | 28.46 | 27.38 | 1.03 | 0.7268 | 0.5631 | 0.443
x2 = 0.8185 | 31.61 | 30.43 | 29.3 | 28.23 | 0.9299 | 0.7011 | 0.5754 | 0.479
x2 = 0.8748 | 32.48 | 31.32 | 30.2 | 29.15 | 0.8732 | 0.7131 | 0.6216 | 0.5385
x2 = 0.923 | 33.41 | 32.27 | 31.15 | 30.12 | 0.8501 | 0.7459 | 0.6802 | 0.6027
x2 = 0.9632 | 34.3 | 33.18 | 32.07 | 31.05 | 0.8317 | 0.7627 | 0.7103 | 0.6468
